Patent publication US12583892B2 (priority 2020, dated 2026)

Tested on: NMDAR-dependent EPSCs
Type: cell-based, rat

CC(C(O)c1ccc(O)cc1)N1CCC(Cc2ccccc2)CC1 (stereo not shown) [ifenprodil]
NMDARs-dependent EPSCs, young neurons: inhibition
